# Assay results from patent US20130195798A1, “COMBINATION THERAPY FOR TREATMENT OF VIRAL INFECTIONS” (The Chancellors, Masters and Scholars of the University of …, priority 2006, published 2013).
# Assays:
# cytopathic BVDV = conditions: higher NB-DNJ concentrations in combination with IFN; cited from earlier work
# ncp BVDV strain Pe515 = assay: Real time RT-PCR of secreted viral RNA in supernatants of persistently infected MDBK cells (Example 3); assay type: cell-based, bovine viral diarrhea virus; conditions: iminosugar added to IFN/RBV from the beginning of treatment
# Description: Madin-Darby bovine kidney cells (MDBK) MDBK cells were seeded at 1×10^6 cells/35 mm dish, infected with non-cytopathic (ncp) BVDV strain Pe515 (National Animal Disease Laboratory) at a MOI of 0.1, and passaged into fresh RPMI 1640 medium containing 10% (v/v) Foetal calf serum using a 1:8 dilution every three days. After achieving a stable infection IFN (1000 IU) and RBV (1 μM) (Sigma-Aldrich) were added to the cells; this passage was denoted passage 0 (P0). Simultaneously, a non-drug treated positive control sample and mock-infected (M.I.) negative controls cultured in the presence and absence of IFN and RBV (1000 IU and 1 μM, respectively) were prepared. Cells continued to be passaged every 3 days into fresh medium containing IFN and RBV. […] At each passage the combined supernatants of cultured cells from duplicate wells were harvested (to account for biological variation), levels of secreted viral RNA measured (by real time RT-PCR using technical duplicates) and the infectivity of the supernatant determined using an immunofluorescence (IF) based infectivity assay.
# At each passage, a 500 μl aliquot of each supernatant harvested from the cultured cells was concentrated by ultrafiltration (10 kDa molecular weight cut off Centricon filter; Millipore, Mass., USA) to 140 μl. […] Real time RT-PCR was carried out using the Qiagen Quantitect RT-PCR kit. […]
structure (smiles),measurement,setting,value
"CCCCN1C[C@H](O)[C@@H](O)[C@H](O)[C@H]1CO [NB-DNJ, N-butyl deoxynojirimycin]",antiviral effect of the combination,cytopathic BVDV,greater than additive antiviral effect
same,additional effect on decrease of viral RNA levels (synergy),ncp BVDV strain Pe515,no synergy was observed
